Laboratory results taken from PMC11603075 (Communications Biology, 2024).

Experiments:
Assay type in all cases: biochemical
[1] = target: T1, KDM4E (Homo sapiens, UniProt B2RXH2); test: KDM, RDM and hydroxylation (+16 Da) activities of KDM4E with histone peptide variants by MS; conditions: MALDI–TOF or LC–MS, n = 3
T1 construct: KDM4E1–337; made in house; host or cells: E. coli
T1 sequence (B2RXH2 1-337): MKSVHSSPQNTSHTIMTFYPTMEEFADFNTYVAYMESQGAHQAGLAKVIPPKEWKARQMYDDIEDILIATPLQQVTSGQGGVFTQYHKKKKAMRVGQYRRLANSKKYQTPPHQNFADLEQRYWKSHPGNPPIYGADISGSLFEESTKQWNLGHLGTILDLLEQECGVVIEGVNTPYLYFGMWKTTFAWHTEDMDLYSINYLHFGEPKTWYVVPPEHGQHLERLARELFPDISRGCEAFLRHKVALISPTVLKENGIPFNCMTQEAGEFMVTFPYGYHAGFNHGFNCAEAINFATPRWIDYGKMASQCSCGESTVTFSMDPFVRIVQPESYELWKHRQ
Description: Fig. 3 KDM4E-catalysed hydroxylation occurs at Arg-20 on histone H2a peptide. a LC–MS/MS analysis of H2a(1–20) after KDM4E treatment. Two potential hydroxylation sites, R17 and R20, were identified, with the latter more likely (Supplementary Fig. 9). b Peptide variant studies support Arg-20 hydroxylation; specific activities: H2a(1–20), 0.65 nmol min^−1 mg^−1 SD: 0.073; H2a(1–20) with a C-terminal carboxylic acid (indicated with an -OH), no activity; H2a(1–20)R20A, no activity; H2a(1–20)R20K*, no activity; H2a(1–20)R20Kme3*, 0.44 nmol min^−1 mg^−1 SD: 0.04; H2a(1–20)R3me2a*, 0.51 nmol min^−1 mg^−1 SD: 0.05; H2a(1–20)R3A, 0.37 nmol min^−1 mg^−1 SD: 0.002; H2a(1–21)*, 0.65 nmol min^−1 mg^−1 SD 0.02; H2a(1–25, 0.35 nmol min^−1 mg^−1 SD: 0.044; and H2a(10–29), 0.02 nmol min^−1 mg^−1 SD: 0.013. Measurements employed MALDI–TOF MS except when labelled with*, which employed LC–MS (Supplementary Fig. 10 for representative MS data). n = 3 independent assays. c KDM, RDM and hydroxylation (+16 Da) activities of KDM4E are sequence and context dependent. Histone peptides (H2a, H3, H4) and variants (wild type residue in red, replaced with either K, Kme3, R or Rme2a) were incubated with KDM4E and analysed on MALDI–TOF MS. KDM, RDM and hydroxylation (+16 Da) were detected in some but not all peptides (Supplementary Fig. 10 for representative MS data). […]

[2] = target: T1, KDM4E; test: Specific hydroxylation activity of KDM4E; conditions: for extent of hydroxylation (in words): KDM4E, relative to H2a(1–20)
Description: Fig. 3 KDM4E-catalysed hydroxylation occurs at Arg-20 on histone H2a peptide. a LC–MS/MS analysis of H2a(1–20) after KDM4E treatment. Two potential hydroxylation sites, R17 and R20, were identified, with the latter more likely (Supplementary Fig. 9). b Peptide variant studies support Arg-20 hydroxylation; specific activities: H2a(1–20), 0.65 nmol min^−1 mg^−1 SD: 0.073; H2a(1–20) with a C-terminal carboxylic acid (indicated with an -OH), no activity; H2a(1–20)R20A, no activity; H2a(1–20)R20K*, no activity; H2a(1–20)R20Kme3*, 0.44 nmol min^−1 mg^−1 SD: 0.04; H2a(1–20)R3me2a*, 0.51 nmol min^−1 mg^−1 SD: 0.05; H2a(1–20)R3A, 0.37 nmol min^−1 mg^−1 SD: 0.002; H2a(1–21)*, 0.65 nmol min^−1 mg^−1 SD 0.02; H2a(1–25, 0.35 nmol min^−1 mg^−1 SD: 0.044; and H2a(10–29), 0.02 nmol min^−1 mg^−1 SD: 0.013. Measurements employed MALDI–TOF MS except when labelled with*, which employed LC–MS (Supplementary Fig. 10 for representative MS data). n = 3 independent assays. c KDM, RDM and hydroxylation (+16 Da) activities of KDM4E are sequence and context dependent. Histone peptides (H2a, H3, H4) and variants (wild type residue in red, replaced with either K, Kme3, R or Rme2a) were incubated with KDM4E and analysed on MALDI–TOF MS. KDM, RDM and hydroxylation (+16 Da) were detected in some but not all peptides (Supplementary Fig. 10 for representative MS data). (−) No mass changes observed. n = 3 independent assays. See Supplementary Table 6 for conditions. TEXT PRINTED IN THE PICTURE: (c) H2a: K/R replacement K: -; K/R replacement Kme3: KDM/ROH; K/R replacement R: ROH; K/R replacement Rme2a: KDM/ROH | (c) H3: K/R replacement K: -; K/R replacement Kme3: KDM; K/R replacement R: -; K/R replacement Rme2a: RDM | (c) H4: K/R replacement K: -; K/R replacement Kme3: -; K/R replacement R: -; K/R replacement Rme2a: RDM DOUBTS OF THE COPYIST ABOUT THIS PICTURE: Panel c: the table cells are qualitative activity classes (KDM, RDM, ROH, -) for peptide variants, not numbers; it is uncertain whether they count as results. / Panel b: the bar chart prints no values beside the bars, so nothing was taken from it.
(§1) MS-based screening assays with peptides and calf thymus histones were as reported; see Supplementary Table 6 for conditions. Time course assays were based on reported procedures. In brief, equal volumes of the enzyme and substrate solutions were combined to initiate the reaction; 10 µL of 2% (v/v) formic acid (HCOOH) in ddH2O or 100% methanol was added to 10 µL of the reaction mixture to quench reactions at different time points. Unless otherwise stated, time course assays were carried out in triplicate. In some cases, LC–MS was used instead of MALDI-TOF MS to avoid a MALDI matrix induced artefact with the hydroxylated product (Supplementary Fig. 16).
Data collected from time course assay(s) were used to plot the % conversion vs time (min) using GraphPad Prism5 version 5.04; the resultant slopes were used to fit a line with linear regression to the first-order region of the reaction. The resultant gradient was then converted from % product formation min^−1 to amount of peptide converted (demethylation and / or hydroxylation) in µM.
Supplementary Figure 17 Comparison of specific hydroxylation activities of KD M4E with H2a(1–20) when anal ysed by MALDI-TO F MS or LC–MS. Comparison of specific activities for KDM4E catalysed hydroxylation of H2a(1–20) when analysed with MALDI-TOF MS or LC–MS ([…] SD: 0.073 and 0.65 nmol·min−1·mg− 1 SD: 0.01 respectively). n = 3 (independent assays). See Supplementary Table 6 for assay […]
(also on this page, place not known: KDM4E H2a(1 –20) analysed MALDI -TOF LC –MS nmol·min −1·mg−1 nmol·min−1·mg−1 0.8specific activity (nmol·min-1·mg-1)) […]
[ E nz ym e] [Peptide] [2OG] [Ascorbate] [(NH4)2F e(S O4)2] [TCEP] Buffer pH7.5 Enzyme Cognate substrate (mM) (mM) (mM) (mM) (mM) (mM) [HE PE S]
Supplementary Table 6 Summary of MS assay conditions for substrate screening. These conditions […]

[3] = target: T1, KDM4E; test: MALDI–TOF MS demethylation/+16 Da assay, KDM4E; conditions: 60 min, 2 µM KDM4E, 10 µM peptide
From the text: Fig. 2 Histone H2a fragments are KDM5 and KDM4 substrates. […] See Supplementary Table 6 and Supplementary Fig. 2 for assay conditions and quantification, respectively. […] 0-minute MS spectrum in black, 60/90-minute spectrum in red.
as §1, with “16). […]” for “16).”
Supplementary Figure 2 Histone H2a peptide fragments are substrates of KDM4s and KDM5s.
2 for representative corresponding MALDI–TOF MS traces. Bar graphs comparing % product format ion (+16 Da and demethylation) of H2a(1–20)R3me2a by (a) K DM5 A–D (after 90 minutes) and (b) KDM4A–E ( a ft er 60 minutes), analysed by MALDI– TOF MS. n = (a) 2, (b) 3 (independent assays). See Supplementary Table 6 for assay condit ions. See Figure S13 A 1 for a positive control. […]

[4] = MALDI–TOF MS, mean of n = 3, SD: H2a(1–20) 0.073, R3A 0.002, H2a(1–25) 0.044, H2a(10–29) 0.013

mass shift [1]	specific activity (hydroxylation) ([2]; Figure 3b, LC–MS (*), replicate 1)	specific activity (hydroxylation) ([2]; Figure 3b, LC–MS (*), replicate 2)	specific activity (hydroxylation) ([2]; Figure 3b, LC–MS (*), replicate 3)	extent of hydroxylation (in words) [2]	specific activity (hydroxylation) [2, 4]	+16 Da mass shift (hydroxylation) [1]	specific activity (hydroxylation) ([2]; Figure 3b, MALDI–TOF MS, replicate 1)	specific activity (hydroxylation) ([2]; Figure 3b, MALDI–TOF MS, replicate 2)	+16 Da mass shift [3]	Substance
no mass shift	0 nmol/min/mg	0 nmol/min/mg	0 nmol/min/mg	no activity was observed	no activity	–	–	–	–	Ac - SGR GKQ GGKAR AKAKT R SSR - O H [H2a(1–20)-OH, H2a(1–20) with a C-terminal carboxylic acid]
–	–	–	–	lower	0.35 nmol/min/mg	+16 Da mass shift	0.3027 nmol/min/mg	0.3905 nmol/min/mg	–	Ac - SGR GKQ GGKAR AKAKT R SSR AGL Q F [H2a(1–25)]
–	–	–	–	–	–	–	–	–	A +16 Da mass shift occurs	H2a(1–20)R3me1: H2a(1–20) mono-methylated at Arg-3
